Converted amounts (≈) assume the structure as drawn. Like-named read-outs stand apart in the source and are kept apart here.
Tests used:
Assay in all cases: In vitro MIC, broth microdilution (CLSI)
Type in all cases: cell-based
Enterococcus faecalis = details: read-out: MIC (converted)
Procedure: (§1) All test articles were dissolved in DMSO. Stock solutions were prepared at 40-fold the highest concentration in the test plate. The final concentration of DMSO in the test system was 2.5%.
(§2) The medium employed for the MIC assay was Mueller Hinton II Broth (MHB II-Becton Dickinson, #212322, Lot #9044411) for most of the organisms. MHB II was supplemented with 2% lysed horse blood (Cleveland Scientific Lot #22299-1) to accommodate the growth of Streptococcus pneumoniae, Streptococcus pyogenes and Streptococcus agalactiae. The media were prepared at 102.5% the normal weight to offset the dilution created by the addition of 5 μL drug solution to each well of the microdilution panels.
(§3) The MIC assay method followed the procedure described by the Clinical and Laboratory Standards Institute (see Clinical and Laboratory Standards Institute. Methods for Dilution Antimicrobial, Susceptibility Tests for Bacteria That Grow Aerobically; Approved Standard—Eighth Edition. CLSI document M07-A8 [ISBN 1-56238-689-1]. Clinical and Laboratory, Standards Institute, 940 West Valley Road, Suite 1400, Wayne, Pa. 19087-1898 USA, 2009) and employed automated liquid handlers to conduct serial dilutions and liquid transfers. Automated liquid handlers included the Multidrop 384 (Labsystems, Helsinki, Finland), Biomek 2000 and Multimek 96 (Beckman Coulter, Fullerton Calif.).
(§4) The wells of Columns 2-12 of standard 96-well microdilution plates (Falcon 3918) were filled with 150 μL of DMSO on the Multidrop 384. The drugs (300 μL) were dispensed into Column 1 of the appropriate row in these plates. These would become the mother plates from which the test plates (daughter plates) were prepared. The Biomek 2000 completed serial transfers through Column 11 in the mother plates. The wells of Column 12 contained no drug and were the organism growth control wells in the daughter plates. The daughter plates were loaded with 185 μL of the appropriate test media (described above) using the Multidrop 384. The daughter plates were prepared on the Multimek 96 instrument which transferred 5 μL of drug solution from each well of a mother plate to each corresponding well of each daughter plate in a single step. Therefore, the test agents were maintained in solution in 100% DMSO up until the point of being added to the final test medium.
(§5) Standardized inoculum of each organism was prepared per CLSI methods (See Clinical and Laboratory Standards Institute. Performance Standards for Antimicrobial Susceptibility Testing; Nineteenth Informational Supplement. CLSI document M100-S19 [ISBN 1-56238-690-5]. Clinical and Laboratory Standards Institute, 940 West Valley Road, Suite 1400, Wayne, Pa. 19087-1898 USA, 2009.). Suspensions were prepared in MHB to equal the turbidity of a 0.5 McFarland standard. The suspensions were diluted 1:9 in broth appropriate to the organism. The inoculum for each organism was dispensed into sterile reservoirs divided by width (Beckman Coulter), and the Biomek 2000 was used to inoculate the plates. Daughter plates were placed on the Biomek 2000 work surface reversed so that inoculation took place from low to high drug concentration. The Biomek 2000 delivered 10 μL of standardized inoculum into each well. This yielded a final cell concentration in the daughter plates of approximately 5×10^5 colony-forming-units/mL. Thus, the wells of the daughter plates ultimately contained 185 μL of broth, 5 μL of drug solution, and 10 μL of bacterial inoculum. The final concentration of DMSO in the assay plate was 2.5%.
(§6) Plates were stacked 3 high, covered with a lid on the top plate, placed in plastic bags, and incubated at 35° C. for approximately 18 hours for most of the isolates. The Streptococcus plates were read after 20 hours of incubation. The microplates were viewed from the bottom using a plate viewer. […] The MIC was read and recorded as the lowest concentration of drug that inhibited visible growth of the organism.

Enterococcus faecium = details: read-out: MIC
Procedure: as §1, §2, §3, §4, §5, §6

Staphylococcus aureus = details: Staphylococcus aureus, read-out: MIC (converted)
Procedure: as §1, §2, §3, §4, §5, §6

[1] = test system: Staphylococcus epidermidis; details: Staphylococcus epidermidis, read-out: MIC
Procedure: as §1, §2, §3, §4, §5, §6

Streptococcus agalactiae = details: Streptococcus agalactiae, MHB II with 2% lysed horse blood, read-out: MIC
Procedure: as §1, §2, §3, §4, §5, §6

Streptococcus pneumoniae = details: Streptococcus pneumoniae, MHB II with 2% lysed horse blood, read-out: MIC (converted)
Procedure: as §1, §2, §3, §4, §5, §6

Streptococcus pyogenes = details: MHB II with 2% lysed horse blood
Procedure: as §1, §2, §3, §4, §5, §6

Structure (SMILES): CC(=O)NC[C@H]1CN(c2ccc(N3CCOCC3)c(F)c2)C(=O)O1 [Linezolid, reference compound]
- MIC (Enterococcus faecalis; Enterococcus faecalis, ATCC29212, MMX 101, CLSI QC, ATCC 29212): 2 µg/mL (≈ 5.93 µM)
- MIC (Enterococcus faecalis; Enterococcus faecalis, MMX 742, VSE, CHP): 2 µg/mL (≈ 5.93 µM)
- MIC (Enterococcus faecalis; Enterococcus faecalis, MMX 3199, VSE, UCLA): 2 µg/mL (≈ 5.93 µM)
- MIC (Enterococcus faecalis; Enterococcus faecalis, MMX 3896, VSE, Mt. Sinai): 1 µg/mL (≈ 2.96 µM)
- MIC (Enterococcus faecalis; MMX 3821, VRE, Mt. Sinai): 2 µg/mL (≈ 5.93 µM)
- MIC (Enterococcus faecalis; MMX 4131, VRE, CHP): 2 µg/mL (≈ 5.93 µM)
- MIC (Enterococcus faecalis; MMX 4160, VRE, UCLA): 2 µg/mL (≈ 5.93 µM)
- MIC (Enterococcus faecium; Enterococcus faecium, MMX 0799, VSE, CHP): 2 µg/mL (≈ 5.93 µM)
- MIC (Enterococcus faecium; Enterococcus faecium, MMX 0845, VSE, UCLA): 2 µg/mL (≈ 5.93 µM)
- MIC (Enterococcus faecium; Enterococcus faecium, MMX 1259, VSE, Mt. Sinai): 4 µg/mL (≈ 11.9 µM)
- MIC (Enterococcus faecium; MMX 1238, VRE, Mt. Sinai): 2 µg/mL (≈ 5.93 µM)
- MIC (Enterococcus faecium; MMX 4024, VRE, CHP): 4 µg/mL (≈ 11.9 µM)
- MIC (Enterococcus faecium; MMX 4048, VRE, UCLA): 4 µg/mL (≈ 11.9 µM)
- MIC (Staphylococcus aureus; ATCC29213, MMX 100, CLSI QC, ATCC 29213): 4 µg/mL (≈ 11.9 µM)
- MIC (Staphylococcus aureus; MRSA, MMX 758, MRSA, CHP): 4 µg/mL (≈ 11.9 µM)
- MIC (Staphylococcus aureus; MRSA, MMX 2055, MRSA, UCLA): 4 µg/mL (≈ 11.9 µM)
- MIC (Staphylococcus aureus; MRSA, MMX 3894, MRSA, Mt. Sinai): 4 µg/mL (≈ 11.9 µM)
- MIC (Staphylococcus aureus; MSSA, MMX 753, MSSA, CHP): 4 µg/mL (≈ 11.9 µM)
- MIC (Staphylococcus aureus; MSSA, MMX 2063, MSSA, UCLA): 2 µg/mL (≈ 5.93 µM)
- MIC (Staphylococcus aureus; MSSA, MMX 3856, MSSA, Mt. Sinai): 4 µg/mL (≈ 11.9 µM)
- MIC ([1]; MMX 835, MSSE, UCLA): 1 µg/mL (≈ 2.96 µM)
- MIC ([1]; MMX 3703, MSSE, CHP): 1 µg/mL (≈ 2.96 µM)
- MIC ([1]; MMX 3763, MSSE, Mt. Sinai): 2 µg/mL (≈ 5.93 µM)
- MIC ([1]; MRSE, MMX 762, MRSE, CHP): 1 µg/mL (≈ 2.96 µM)
- MIC ([1]; MRSE, MMX 826, MRSE, UCLA): 1 µg/mL (≈ 2.96 µM)
- MIC ([1]; MRSE, MMX 3752, MRSE, Mt. Sinai): 1 µg/mL (≈ 2.96 µM)
- MIC (Streptococcus agalactiae; MMX 3743, Mt. Sinai): 1 µg/mL (≈ 2.96 µM)
- MIC (Streptococcus agalactiae; MMX 4093, UCLA): 1 µg/mL (≈ 2.96 µM)
- MIC (Streptococcus agalactiae; MMX 4106, CHP): 2 µg/mL (≈ 5.93 µM)
- MIC (Streptococcus pneumoniae; ATCC49619, MMX 1195, CLSI QC, ATCC 49619): 1 µg/mL (≈ 2.96 µM)
- MIC (Streptococcus pneumoniae; MMX 866, PSSP, CHP): 1 µg/mL (≈ 2.96 µM)
- MIC (Streptococcus pneumoniae; MMX 3130, PSSP, UCLA): 1 µg/mL (≈ 2.96 µM)
- MIC (Streptococcus pneumoniae; MMX 3937, PSSP, Mt. Sinai): 1 µg/mL (≈ 2.96 µM)
- MIC (Streptococcus pneumoniae; PRSP, MMX 748, PRSP, CHP): 0.5 µg/mL (≈ 1.48 µM)
- MIC (Streptococcus pneumoniae; PRSP, MMX 3160, PRSP, UCLA): 1 µg/mL (≈ 2.96 µM)
- MIC (Streptococcus pneumoniae; PRSP, MMX 3953, PRSP, Mt. Sinai): 0.5 µg/mL (≈ 1.48 µM)
- MIC (Streptococcus pyogenes; MMX 2572, UCLA): 1 µg/mL (≈ 2.96 µM)
- MIC (Streptococcus pyogenes; MMX 3928, Mt. Sinai): 1 µg/mL (≈ 2.96 µM)
- MIC (Streptococcus pyogenes; Streptococcus pyogenes, MMX 718, CHP, read-out: MIC): 1 µg/mL (≈ 2.96 µM)
